# Where two headings read alike, the source gives them in different places.
# Tests used:
# Human Arginase 1 = molecular target: T1, Human Arginase 1 (Homo sapiens, UniProt P05089); assay: Human Arginase 1 enzyme inhibition (thioarginine/DTNB absorbance at 412 nm); assay type: biochemical; details: recombinant enzyme from E. coli, 5 nM; 30 min pre-incubation, 60 min reaction
# T1 construct: made in house; host or cells: E. coli
# T1 sequence (P05089 1-322): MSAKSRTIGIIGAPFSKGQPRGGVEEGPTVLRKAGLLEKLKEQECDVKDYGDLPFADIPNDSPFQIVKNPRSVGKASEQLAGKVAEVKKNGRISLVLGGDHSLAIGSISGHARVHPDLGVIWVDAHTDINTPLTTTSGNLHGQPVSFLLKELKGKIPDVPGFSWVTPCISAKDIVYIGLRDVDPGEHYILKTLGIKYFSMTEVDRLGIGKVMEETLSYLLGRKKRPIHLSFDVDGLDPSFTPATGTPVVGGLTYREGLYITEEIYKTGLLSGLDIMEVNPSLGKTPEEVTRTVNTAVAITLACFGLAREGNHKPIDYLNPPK
# Description: (§1) The inhibitory effects of Examples 1 to 12 on the activity of Human Arginase 1 and Arginase 2 activity were quantified by measuring the formation of the thiol group from thioarginine using recombinant Arginase 1 or Arginase 2 produced from E. coli. The thiol group was detected with Ellman's reagent, 5,5′-dithiobis(2-nitrobenzoic acid) (DTNB). DTNB reacts with the thiol to give the mixed disulfide and 2-nitro-5-thiobenzoic acid (TNB) which is quantified by the absorbance of the anion (TNB^2−) at 412 nm.
# (§2) The assays were run in clear 384 well plates (Greiner cat no: 781101). Various concentrations of Examples 1 to 12 in 300 nL DMSO were dispensed to assay plates using an Echo acoustic dispenser immediately followed by plate sealing and centrifugation. Two pre-mixes were prepared from reagents thawed immediately before addition to assay plates. Pre-mix one comprised human Arginase 1 or human Arginase 2, at a final concentration of 5 nM and 0.5 mM DTNB in assay buffer, 45 mM HEPES pH7.5, brij 35, 0.045% (w/v) and 100 μM MnCl2. Pre-mix two comprised freshly thawed 0.5 mM thioarginine in assay buffer. Fifteen microlitres of pre-mix one was dispensed to assay plates containing Examples 1 to 12, centrifuged and incubated for 30 minutes at room temperature prior to adding fifteen microlitres of pre-mix two.
# (§3) Assay plates were centrifuged prior to reading absorbance at 412 nm in a Pherastar multi-mode plate reader to collect data at time point 0 (T0). The plates were incubated at room temperature for 60 min prior to reading again to collect data at time point 1 (T1). Data is derived by subtracting the A412 signal measured at T0 (time point 0) from that measured at T1 (time point 1). The data was transformed to % effect using the equation: Compound % effect=100*[(X−min)/(max−min)], where X represents the normalized value for the compound based on the Min (vehicle) and Max (reference compound) inhibition control.
# (§4) The concentration of Examples 1 to 12 that inhibited the activity by 50% (i.e. the IC50) was calculated by plotting the % effect versus test compound concentration and fitting the data using the Genedata Screener Smart fit algorithm.
# Human Arginase 2 = molecular target: T2, Human Arginase 2 (Homo sapiens, UniProt P78540); assay: Human Arginase 2 enzyme inhibition (thioarginine/DTNB absorbance at 412 nm); assay type: biochemical; details: recombinant enzyme from E. coli, 5 nM; 30 min pre-incubation, 60 min reaction
# T2 construct: made in house; host or cells: E. coli
# T2 sequence (P78540 23-354): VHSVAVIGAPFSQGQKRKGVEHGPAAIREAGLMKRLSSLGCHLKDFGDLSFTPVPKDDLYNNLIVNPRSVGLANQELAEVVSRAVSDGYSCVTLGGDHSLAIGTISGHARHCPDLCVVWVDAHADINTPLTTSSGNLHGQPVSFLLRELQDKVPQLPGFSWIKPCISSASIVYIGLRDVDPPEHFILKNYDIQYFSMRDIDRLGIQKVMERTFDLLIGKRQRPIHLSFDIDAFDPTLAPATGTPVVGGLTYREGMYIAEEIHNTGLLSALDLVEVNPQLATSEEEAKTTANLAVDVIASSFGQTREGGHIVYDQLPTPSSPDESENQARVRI
# Description: as §1, §2, §3, §4
# [1] = Bioavailability / pharmacokinetic study in male rats (IV and PO); assay type: in vivo; details: plasma; for bioavailability / AUC / Cmax / Tmax: male, rat, po, 5 mg/kg; for clearance / Vd: male rat; for Vd: read-out: Vdss
# Procedure: Examples 2, 3, and 4 are prodrug forms of Example 1. […] Example 2 was formulated in 0.9% w/v saline pH 4 (adjusted with 1M HCl) for IV dosing. The formulation was dosed at 2 mg/kg by femoral catheter to two male rats each (170-250 g). Jugular vein catheter serial blood samples were taken at 0.033, 0.083, 0.167, 0.5, 1, 2, 4, 8, and 24 hrs post-dose. For PO dosing, Example 2 was formulated in deionized water pH 4 (adjusted with 1M HCl) and dosed at 5 mg/kg by oral gavage to two male rats each (170-250 g). Serial blood samples were taken by jugular vein catheter at 0.25, 0.5, 1, 1.5, 2, 3, 4, 8, and 24 hrs post dose. Plasma samples were generated from blood using low speed centrifugation. A single set of calibration standards containing Example 1 and Example 2 were prepared by spiking blank plasma. The samples and standards were extracted by precipitation with two volumes of acetonitrile followed by centrifugation. The results obtained were used to determine the Cl (mL/min/kg), Vdss (L/kg), Cmax (μM), AUC (μM h), tmax (h), and % F for both Example 1 and Example 2. Absolute bioavailability was determined by comparing the PO dose normalized AUC of Example 1 when dosed as Example 2, versus the dose normalized IV AUC of Example 1 when dosed as Example 1. Where appropriate, measured and not nominal doses were used to calculate bioavailability. In an analogous fashion, the same procedure was repeated for Examples 3 and 4.
# [2] = PO 5 mg/kg of Example 2, Example 1 measured when dosed as pro-drug
# [3] = PO dosing of Example 3, Example 1 measured when dosed as pro-drug
# [4] = PO dosing of Example 4, Example 1 measured when dosed as pro-drug
# [5] = PO 5 mg/kg vs IV 2 mg/kg, pro-drug measured when dosed as pro-drug
# [6] = PO 5 mg/kg, pro-drug measured when dosed as pro-drug
# [7] = IV 2 mg/kg, pro-drug measured when dosed as pro-drug
smiles,measurement,setting,value
"N[C@H]1CCN[C@](CCCCB(O)O)(C(=O)O)C1 (single isomer, unassigned; enantiomer 1) [Example 10, Anti-4-amino-2-(4-boronobutyl)piperidine-2-carboxylic acid enantiomer 1]",IC50,Human Arginase 1,20100 nM
same,IC50,Human Arginase 2,53100 nM
"N[C@H]1CCN[C@@](CCCCB(O)O)(C(=O)O)C1 [Example 1, (2R,4S)-4-amino-2-(4-boronobutyl)piperidine-2-carboxylic acid]",IC50,Human Arginase 1,3 nM
same,bioavailability,"[1]; Example 1 after PO Example 2 vs IV AUC of Example 1 dosed as Example 1, dose normalized",82%
same,bioavailability,"[1]; Example 1 after PO Example 3 vs IV AUC of Example 1 dosed as Example 1, dose normalized",78%
same,bioavailability,"[1]; Example 1 after PO Example 4 vs IV AUC of Example 1 dosed as Example 1, dose normalized",20%
same,AUC,[1]; [2],23.7 µM·h
same,Cmax,[1]; [2],2500 nM
same,Tmax,[1]; [2],2.3 h
same,AUC,[1]; [3],25.7 µM·h
same,Cmax,[1]; [3],2000 nM
same,Tmax,[1]; [3],2.5 h
same,AUC,[1]; [4],6.1 µM·h
same,Cmax,[1]; [4],1000 nM
same,Tmax,[1]; [4],1.5 h
same,clearance,"[1]; IV, Example 1 dosed as payload",8.5 mL/min/kg
same,Vd,"[1]; IV, Example 1 dosed as payload",0.23 L/kg
same,IC50,Human Arginase 2,4 nM
"CC(C)C[C@H](N)C(=O)N[C@H]1CCN[C@@](CCCCB(O)O)(C(=O)O)C1 [Example 6, (2R,4S)-4-[[(2S)-2-amino-4-methyl-pentanoyl]amino]-2-(4-boronobutyl)piperidine-2-carboxylic acid]",IC50,Human Arginase 1,18 nM
same,IC50,Human Arginase 2,15 nM
"NCC(=O)N[C@H]1CCN[C@@](CCCCB(O)O)(C(=O)O)C1 [Example 3, (2R,4S)-4-(2-aminoacetamido)-2-(4-boronobutyl)piperidine-2-carboxylic acid]",IC50,Human Arginase 1,80 nM
same,bioavailability,[1]; [5],5.2%
same,AUC,[1]; [6],1.1 µM·h
same,Cmax,[1]; [6],640 nM
same,Tmax,[1]; [6],0.75 h
same,clearance,[1]; [7],13.5 mL/min/kg
same,Vd,[1]; [7],0.22 L/kg
same,IC50,Human Arginase 2,59 nM
"N[C@H]1CCN[C@](CCCCB(O)O)(C(=O)O)C1 (single isomer, unassigned; enantiomer 2) [Example 11, anti-4-amino-2-(4-boronobutyl)piperidine-2-carboxylic acid enantiomer 2]",IC50,Human Arginase 1,3150 nM
same,IC50,Human Arginase 2,4370 nM
"CC[C@H](N)C(=O)N[C@H]1CCN[C@@](CCCCB(O)O)(C(=O)O)C1 [Example 5, (2R,4S)-4-[[(2S)-2-aminobutanoyl]amino]-2-(4-boronobutyl)piperidine-2-carboxylic acid]",IC50,Human Arginase 1,25 nM
same,IC50,Human Arginase 2,21 nM
"CC(C)[C@H](N)C(=O)N[C@H]1CCN[C@@](CCCCB(O)O)(C(=O)O)C1 [Example 2, (2R,4S)-4-((S)-2-amino-3-methylbutanamido)-2-(4-boronobutyl)piperidine-2-carboxylic acid]",IC50,Human Arginase 1,29 nM
same,bioavailability,[1]; [5],2%
same,AUC,[1]; [6],0.29 µM·h
same,Cmax,[1]; [6],350 nM
same,Tmax,[1]; [6],0.25 h
same,clearance,[1]; [7],16.3 mL/min/kg
same,Vd,[1]; [7],0.25 L/kg
same,IC50,Human Arginase 2,24 nM
"N[C@@H]1CCN[C@](CCCCB(O)O)(C(=O)O)C1 (single isomer, unassigned) [Example 12]",IC50,Human Arginase 1,2200 nM
same,IC50,Human Arginase 2,2540 nM
"CC(C)(C)[C@H](N)C(=O)N[C@H]1CCN[C@@](CCCCB(O)O)(C(=O)O)C1 [Example 8, (2R,4S)-4-[[(2S)-2-amino-3,3-dimethyl-butanoyl]amino]-2-(4-boronobutyl)piperidine-2-carboxylic acid]",IC50,Human Arginase 1,31 nM
same,IC50,Human Arginase 2,24 nM
"CC(C)[C@@H](N)C(=O)N[C@H]1CCN[C@@](CCCCB(O)O)(C(=O)O)C1 [Example 9, (2R,4S)-4-[[(2R)-2-amino-3-methyl-butanoyl]amino]-2-(4-boronobutyl)piperidine-2-carboxylic acid]",IC50,Human Arginase 1,234 nM
same,IC50,Human Arginase 2,180 nM
"C[C@H](N)C(=O)N[C@H]1CCN[C@@](CCCCB(O)O)(C(=O)O)C1 [Example 4, (2R,4S)-4-[[(2S)-2-aminopropanoyl]amino]-2-(4-boronobutyl)piperidine-2-carboxylic acid]",IC50,Human Arginase 1,35 nM
same,clearance,[1]; [7],180 mL/min/kg
same,IC50,Human Arginase 2,27 nM
"CC[C@H](C)[C@H](N)C(=O)N[C@H]1CCN[C@@](CCCCB(O)O)(C(=O)O)C1 [Example 7, (2R,4S)-4-[[(2S,3S)-2-amino-3-methyl-pentanoyl]amino]-2-(4-boronobutyl)piperidine-2-carboxylic acid]",IC50,Human Arginase 1,23 nM
same,IC50,Human Arginase 2,21 nM
